Measurements taken from patent publication US20240166652A1, “MODULATORS OF THE INTEGRATED STRESS PATHWAY” (Calico Life Sciences LLC, priority 2017, published 2024).

Test system: ATF4 luciferase reporter in HEK293T cells
Assay: ATF4-Luc assay (ATF4 luciferase reporter, tunicamycin-treated HEK293T cells)
Type: cell-based, human
Conditions: Homo sapiens, HEK-293T; HEK293T cells carrying the ATF4 luciferase reporter, 1 μg/mL tunicamycin, 7 hours

## O=C(COc1ccc2c(c1)OC(F)(F)O2)NC12CCC(NC(=O)COc3ccc4c(c3)OC(F)(F)O4)(CC1)[C@@H](O)C2 [Compound 542, N,N′-[(2S)-2-hydroxybicyclo[2.2.2]octane-1,4-diyl]bis{2-[(2,2-difluoro-2H-1,3-benzodioxol-5-yl)oxy]acetamide}]
  EC50: < 10 nM

## O=C(CCCc1cccc(Cl)c1)NC12CC(NC(=O)COc3ccc(Cl)c(F)c3)(C1)C2 [Compound 543, N-{3-[2-(4-chloro-3-fluorophenoxy)acetamido]bicyclo[1.1.1]pentan-1-yl}-4-(3-chlorophenyl)butanamide]
  EC50: 50 to 250 nM

## O=C(COc1ccc(F)c(Cl)c1)NC12CCC(NC(=O)COc3ccc(Cl)c(Cl)c3)(CC1)[C@@H](O)C2 [Compound 544, 2-(3-chloro-4-fluorophenoxy)-N-{(3S)-4-[2-(3,4-dichlorophenoxy)acetamido]-3-hydroxybicyclo[2.2.2]octan-1-yl}acetamide]
  EC50: < 10 nM

## O=C(COc1ccc(F)c(Cl)c1)NC12CCC(NC(=O)COc3ccc(Cl)c(F)c3)(CC1)[C@@H](O)C2 [Compound 545, 2-(4-chloro-3-fluorophenoxy)-N-{(2S)-4-[2-(3-chloro-4-fluorophenoxy)acetamido]-2-hydroxybicyclo[2.2.2]octan-1-yl}acetamide]
  EC50: < 10 nM

## O=C(COc1ccc(Cl)cc1)NC12CC(NC(=O)COc3ccc(F)c(Cl)c3)(C1)C2 [Compound 546, 2-(3-chloro-4-fluorophenoxy)-N-{3-[2-(4-chlorophenoxy)acetamido]bicyclo[1.1.1]pentan-1-yl}acetamide]
  EC50: < 10 nM

## O=C(COc1ccc(F)c(Cl)c1)NC12CC(NC(=O)COc3ccc(F)c(Cl)c3)(C1)C2 [Compound 547, N,N′-(bicyclo[1.1.1]pentane-1,3-diyl)bis[2-(3-chloro-4-fluorophenoxy)acetamide]]
  EC50: < 10 nM

## O=C(COc1ccc(Cl)c(F)c1)NC12CCC(NC(=O)COc3ccc(Cl)c(F)c3)(CC1)C(O)C2O (stereo not drawn) [Compound 548, N,N′-(2,3-dihydroxybicyclo[2.2.2]octane-1,4-diyl)bis[2-(4-chloro-3-fluorophenoxy)acetamide]]
  EC50: < 10 nM

## O=C(COc1cccc(F)c1)NC12CCC(NC(=O)COc3cccc(F)c3)(CC1)[C@@H](O)C2 [Compound 549, N,N′-[(2S)-2-hydroxybicyclo[2.2.2]octane-1,4-diyl]bis[2-(3-fluorophenoxy)acetamide]]
  EC50: 50 to 250 nM

## O=C(COc1ccc(F)cc1)NC12CCC(NC(=O)COc3ccc(F)cc3)(CC1)[C@@H](O)C2 [Compound 550, N,N′-[(2S)-2-hydroxybicyclo[2.2.2]octane-1,4-diyl]bis[2-(4-fluorophenoxy)acetamide]]
  EC50: < 10 nM

## O=C(COc1ccc(Cl)c(F)c1)NC12CC(NCc3ccccc3)(C1)C2 [Compound 551, N-[3-(benzylamino)bicyclo[1.1.1]pentan-1-yl]-2-(4-chloro-3-fluorophenoxy)acetamide]
  EC50: 500 to 2000 nM

## O=C(COc1ccc(Cl)c(F)c1)NC12CCC(NC(=O)COc3ccc(Cl)c(F)c3)(CC1)[C@@H](C(=O)O)C2 [Compound 558, (2S)-1,4-bis[2-(4-chloro-3-fluorophenoxy)acetamido]bicyclo[2.2.2]octane-2-carboxylic Acid]
  EC50: 500 to 2000 nM

## O=C(COc1ccc(Cl)c(F)c1)NC12CCC(NC(=O)COc3ccc(Cl)c(F)c3)(CC1)[C@H](C(=O)O)C2 [Compound 559, (2R)-1,4-bis[2-(4-chloro-3-fluorophenoxy)acetamido]bicyclo[2.2.2]octane-2-carboxylic Acid]
  EC50: 500 to 2000 nM

## O=C(COc1ccc(Cl)c(F)c1)NC12CCC(NC(=O)COc3ccc(Cl)c(F)c3)(CC1=O)C(=O)C2 [Compound 561, N,N′-(2,5-dioxobicyclo[2.2.2]octane-1,4-diyl)bis[2-(4-chloro-3-fluorophenoxy)acetamide]]
  EC50: < 10 nM

## COC(=O)[C@H]1CC2(NC(=O)COc3ccc(Cl)c(F)c3)CCC1(NC(=O)COc1ccc(Cl)c(F)c1)CC2 [Compound 562, methyl (2S)-1,4-bis[2-(4-chloro-3-fluorophenoxy)acetamido]bicyclo[2.2.2]octane-2-carboxylate]
  EC50: < 10 nM

## COC(=O)[C@@H]1CC2(NC(=O)COc3ccc(Cl)c(F)c3)CCC1(NC(=O)COc1ccc(Cl)c(F)c1)CC2 [Compound 563, methyl (2R)-1,4-bis[2-(4-chloro-3-fluorophenoxy)acetamido]bicyclo[2.2.2]octane-2-carboxylate]
  EC50: < 10 nM

## O=C(COc1ccc(Cl)c(F)c1)NC12CCC(OCc3ccc(Cl)cc3)(CC1)CC2=O [Compound 564, 2-(4-chloro-3-fluorophenoxy)-N-{4-[(4-chlorophenyl)methoxy]-2-oxobicyclo[2.2.2]octan-1-yl}acetamide]
  EC50: > 2000 nM

## O=C(COc1ccc(Cl)c(F)c1)NC12CCC(OCc3ccc(Cl)cc3)(CC1)CC2O (stereo not drawn) [Compound 565, 2-(4-chloro-3-fluorophenoxy)-N-{4-[(4-chlorophenyl)methoxy]-2-hydroxybicyclo[2.2.2]octan-1-yl}acetamide]
  EC50: 500 to 2000 nM

## CC(C)(O)C1CC2(NC(=O)COc3ccc(Cl)c(F)c3)CCC1(NC(=O)COc1ccc(Cl)c(F)c1)CC2 (stereo not drawn) [Compound 566, N,N′-[2-(2-hydroxypropan-2-yl)bicyclo[2.2.2]octane-1,4-diyl]bis[2-(4-chloro-3-fluorophenoxy)acetamide]]
  EC50: 10 to 50 nM

## O=C(COc1ccc(Cl)c(F)c1)NC12CCC(OCc3ccccc3)(CC1)CC2O (stereo not drawn) [Compound 567, N-[4-(benzyloxy)-2-hydroxybicyclo[2.2.2]octan-1-yl]-2-(4-chloro-3-fluorophenoxy)acetamide]
  EC50: 500 to 2000 nM

## O=C(COc1ccc(Cl)c(F)c1)NC12CCC(NC(=O)COc3ccc(Cl)c(F)c3)(CC1)C(CO)C2 (stereo not drawn) [Compound 568, N,N′-[2-(hydroxymethyl)bicyclo[2.2.2]octane-1,4-diyl]bis[2-(4-chloro-3-fluorophenoxy)acetamide]]
  EC50: < 10 nM

## COC(=O)C1CC2(NC(=O)COc3ccc(Cl)c(F)c3)CCC1(NC(=O)COc1ccc(Cl)c(F)c1)CC2 (stereo not drawn) [Compound 569, methyl 1,4-bis[2-(4-chloro-3-fluorophenoxy)acetamido]bicyclo[2.2.2]octane-2-carboxylate]
  EC50: < 10 nM

## O=C(COc1ccc(Cl)c(F)c1)NC12CCC(NC(=O)COc3cc(F)c(Cl)cc3Br)(CC1)C(Br)C2=O (stereo not drawn) [Compound 570, 2-(2-bromo-4-chloro-5-fluorophenoxy)-N-{2-bromo-4-[2-(4-chloro-3-fluorophenoxy)acetamido]-3-oxobicyclo[2.2.2]octan-1-yl}acetamide]
  EC50: 50 to 250 nM

## O=C(COc1ccc(Cl)c(F)c1)NC12CCC(NC(=O)COc3ccc(Cl)c(F)c3)(CC1)C(Br)C2=O (stereo not drawn) [Compound 572, N,N′-(2-bromo-3-oxobicyclo[2.2.2]octane-1,4-diyl)bis[2-(4-chloro-3-fluorophenoxy)acetamide]]
  EC50: 10 to 50 nM

## O=C(COc1ccc(Cl)c(F)c1)NC1CCC2(NC(=O)COc3ccc(Cl)c(F)c3)CCC1C2 (stereo not drawn) [Compound 573, N,N′-(bicyclo[3.2.1]octane-1,4-diyl)bis[2-(4-chloro-3-fluorophenoxy)acetamide]]
  EC50: < 10 nM

## O=C(COc1ccc(Cl)c(O)c1)NC12CCC(NC(=O)COc3ccc(Cl)c(F)c3)(CC1)[C@@H](O)C2 [Compound 574, 2-(4-chloro-3-fluorophenoxy)-N-{(2S)-4-[2-(4-chloro-3-hydroxyphenoxy)acetamido]-2-hydroxybicyclo[2.2.2]octan-1-yl}acetamide]
  EC50: < 10 nM

## Cc1cnc(OCC(=O)NC23CCC(NC(=O)COc4ccc(Cl)c(F)c4)(CC2)[C@@H](O)C3)s1 [Compound 575, 2-(4-chloro-3-fluorophenoxy)-N-[(2S)-2-hydroxy-4-{2-[(5-methyl-1,3-thiazol-2-yl)oxy]acetamido}bicyclo[2.2.2]octan-1-yl]acetamide]
  EC50: > 2000 nM

## O=C(COc1ccc(Cl)c(F)c1)NC12CCC(NC(=O)NCc3ccc(Cl)c(F)c3)(CC1)C[C@@H]2O [Compound 576, 2-(4-chloro-3-fluorophenoxy)-N-[(2S)-4-({[(4-chloro-3-fluorophenyl)methyl]carbamoyl}amino)-2-hydroxybicyclo[2.2.2]octan-1-yl]acetamide]
  EC50: 10 to 50 nM

## O=C(COc1nccs1)NC12CCC(NC(=O)COc3ccc(Cl)c(F)c3)(CC1)[C@@H](O)C2 [Compound 577, 2-(4-chloro-3-fluorophenoxy)-N-[(2S)-2-hydroxy-4-{2-[(1,3-thiazol-2-yl)oxy]acetamido}bicyclo[2.2.2]octan-1-yl]acetamide]
  EC50: > 2000 nM

## O=C(COc1nc2c(s1)CCCC2)NC12CCC(NC(=O)COc3ccc(Cl)c(F)c3)(CC1)[C@@H](O)C2 [Compound 578, 2-(4-chloro-3-fluorophenoxy)-N-[(2S)-2-hydroxy-4-{2-[(4,5,6,7-tetrahydro-1,3-benzothiazol-2-yl)oxy]acetamido}bicyclo[2.2.2]octan-1-yl]acetamide]
  EC50: > 2000 nM

## O=C(COc1ccc(Cl)cc1)NC12CC(NC(=O)COc3ccc4c(c3)OC(F)(F)O4)(C1)C2 [Compound 580, 2-(4-chlorophenoxy)-N-(3-{2-[(2,2-difluoro-2H-1,3-benzodioxol-5-yl)oxy]acetamido}bicyclo[1.1.1]pentan-1-yl)acetamide]
  EC50: < 10 nM

## O=C(COc1ccc(F)cc1)NC12CCC(NC(=O)COc3ccc(Cl)c(Cl)c3)(CC1)[C@@H](O)C2 [Compound 581, 2-(3,4-dichlorophenoxy)-N-{(2S)-4-[2-(4-fluorophenoxy)acetamido]-2-hydroxybicyclo[2.2.2]octan-1-yl}acetamide]
  EC50: < 10 nM

## O=C(COc1ccc(Cl)cc1)NC12CCC(NC(=O)COc3ccc(Cl)c(Cl)c3)(CC1)[C@@H](O)C2 [Compound 582, 2-(4-chlorophenoxy)-N-{(3S)-4-[2-(3,4-dichlorophenoxy)acetamido]-3-hydroxybicyclo[2.2.2]octan-1-yl}acetamide]
  EC50: < 10 nM

## O=C(COc1ccc(C(F)(F)F)nc1)NC12CCC(NC(=O)COc3ccc(Cl)c(Cl)c3)(CC1)[C@@H](O)C2 [Compound 583, 2-(3,4-dichlorophenoxy)-N-[(2S)-2-hydroxy-4-(2-{[6-(trifluoromethyl)pyridin-3-yl]oxy}acetamido)bicyclo[2.2.2]octan-1-yl]acetamide]
  EC50: < 10 nM
